{"source": "patent US11497788B2", "about": "“Supramolecular glycosaminoglycans” (Northwestern University, priority 2015, dated 2022)", "key": {"[1]": {"test_system": "BMP-2 signaling in C2C12 cells", "test": "C2C12 osteoblast differentiation with BMP-2, alkaline phosphatase (ALP) activity", "type": "cell-based, mouse", "conditions": "C2C12, BMP-2 75 ng/mL, 3 days", "method": "(§1) C2C12 Cell Culture: C2C12 mouse myoblasts (ATCC) were maintained in Dulbecco's Modified Eagle's Medium with high glucose and L-glutamine (DMEM, ATCC), supplemented with 100 U/mL of penicillin and 100 μg/mL streptomycin (P/S, Life Technologies) and 10% heat inactivated FBS (Life Technologies), and passaged at 80-90% confluence. Media was changed every 2 days. Passages 3 to 8 were used for experiments. Cells were grown at 37° C., 5% CO2 in a humidified atmosphere. Cells were detached following a 3 minute incubation at 37° C. with 0.05% Trypsin-EDTA (Life Technologies), then resuspended in DMEM (10% FBS). Unless stated otherwise, cells were seeded at 75,000 cells/mL (400 μL/well in a 48-well plate), and allowed to attach for a minimum of 3 hours prior to experiments.\nC2C12 Osteoblast Differentiation: PA samples were thermally annealed as described for Cryo-TEM. PA solutions were spun down, pipetted for homogeneous mixing, then diluted to 1 mM with DMEM (no FBS). In a 1.5 mL microcentrifuge tube, PA solutions were further diluted with DMEM (5% FBS), gently vortexed, and appropriate amounts of GFs (20 μg/mL) were added to yield [PA]=125 μM and [GF]=375 ng/mL. For mixing, the microcentrifuge tube was gently inverted several times by hand. Following, cells were treated by adding a 100 μl, of the PA/GF mixture per well (48-well plate), yielding a final 500 μl, differentiation medium with [PA]=25 μM and [GF]=75 ng/mL. For controls, the initial 5 mM PA solution was substituted with either PBS alone (saline) or heparin in PBS at appropriate concentrations. Cells were cultured for 3 days without changing the media, and osteoblast differentiation was assessed.\nAlkaline Phosphatase Activity: Alkaline phosphatase (ALP) activity was measured as a marker of osteoblast differentiation (ref. 38; incorporated by reference in its entirety). On day 3, media was removed, and cells were lysed with a 100 μL, of M-PER Mammalian Protein Extraction Reagent (Life Technologies), supplemented with 1×Halt Protease Inhibitor Cocktail (Thermo Fisher Scientific), for 30 minutes on an orbital shaker. A 20 μL, volume of the cell lysate was incubated with 200 μL, of the QUANTI-Blue colorimetric ALP assay (InvivoGen) for 30 minutes to 2 hours at 37° C., in duplicates. The ALP activity was assessed by reading the OD at 630 nm with Cytation3 microplate reader (BioTek). Data were normalized to the respective endogenous DNA levels using Quant-iT PicoGreen dsDNA Assay Kit (Life Technologies). Two separate experiments with 4 replicates each were averaged for statistical analysis. […]"}, "BMP-2": {"biological_target": "T1, BMP-2 (Homo sapiens, UniProt P12643)", "T1 construct": "purchased Medtronic Sofamor Danek (Minneapolis, Minn.)", "T1 sequence (P12643 283-396)": "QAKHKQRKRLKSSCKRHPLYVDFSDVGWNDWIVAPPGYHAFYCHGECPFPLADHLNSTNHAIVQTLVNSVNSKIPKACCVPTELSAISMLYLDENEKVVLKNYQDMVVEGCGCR", "test": "BMP-2 stability assay (ELISA) in C2C12 culture", "type": "cell-based", "conditions": "75 ng/mL BMP-2; 0, 3, 9, 24 h", "method": "BMP-2 Stability Assay: C2C12 cells were seeded at 150,000 cells/mL (500 μL/well in a 48-well plate) and incubated overnight. Following, the media was replaced with treatment media (75 ng/mL BMP-2 in the presence/absence of PA 1, PA 4, and monosaccharide 1. The media was collected at 0, 3, 9, and 24 h and stored at −80° C. prior to BMP-2 quantification. In addition, the cell monolayers were lysed at the indicated time with a 100 μL of M-PER Mammalian Protein Extraction Reagent, supplemented with 1×Halt Protease Inhibitor Cocktail, and also stored at −80° C. prior to BMP-2 quantification. The amount of BMP-2 present in the media and cell extracts was assayed using a BMP-2 Quantikine ELISA kit (R&D Systems) according to the manufacturer's specifications."}, "[2]": {"test_system": "EHBMP-2 (BMP-2 mutated at the N-terminal heparin-binding domain) in C2C12 cells", "test": "ALP activity in C2C12 cells with mutant EHBMP-2", "type": "cell-based, mouse", "conditions": "mutant BMP-2 with negligible heparin binding", "method": "as §1\nC2C12 Osteoblast Differentiation: PA samples were thermally annealed as described for Cryo-TEM. PA solutions were spun down, pipetted for homogeneous mixing, then diluted to 1 mM with DMEM (no FBS). […] Cells were cultured for 3 days without changing the media, and osteoblast differentiation was assessed.\nAlkaline Phosphatase Activity: Alkaline phosphatase (ALP) activity was measured as a marker of osteoblast differentiation (ref. 38; incorporated by reference in its entirety). […] The ALP activity was assessed by reading the OD at 630 nm with Cytation3 microplate reader (BioTek). […]"}, "Factor Xa": {"test_system": "Factor Xa", "conditions": "compared to heparin", "protocol": "Anticoagulation Assay: PA 1 was dissolved to 5 mM in saline with 5 mM CaCl2), pH 7.2, thermally annealed at 80° C. for 30 min and slowly cooled to room temperature. The PA solution was spun down, pipetted for homogeneous mixing, and diluted to 0.25, 2.5, 25, and 100 μM in saline with 2 mM CaCl2). The anticoagulant activities of PA 1 and heparin were assessed by monitoring the activity of Factor Xa, a coagulation cascade enzyme inhibited by heparin-activated antithrombin. The assay was performed using the COATEST Heparin Kit (Chromogenix) according to the manufacturer's instructions. Values were represented as the relative bioactivity of Factor Xa when compared to treatment group treated with saline only."}}}
{"substance": "3,4,6S-GlcNAc PA (VVAAEEK) [PA 1]", "values": [{"measurement": "effect on BMP-2 activity / osteoblast differentiation (in words)", "setting": "[1]", "result": "dramatically amplified"}, {"measurement": "BMP-2 stability in cell culture media", "setting": "BMP-2", "result": "improved BMP-2 stability"}, {"measurement": "ALP expression using EHBMP-2", "setting": "[2]", "result": "minimally affected"}, {"measurement": "anticoagulation activity (Factor Xa activity)", "setting": "Factor Xa", "result": "minimal anticoagulation activity"}]}
